The supplement of paper PMC10307832

Legend:
Test in all cases: relative viability (nuclei count vs DMSO), 5 days (fraction); higher = more cells survive
PC-3 [JPC-3] = tested on: PC-3 [JPC-3]
In short: (§1)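 After 5 days of treatment, lung cancer cells in 1536-well plates were fixed and stained in a single step (final 0.05% Triton X-100, 1% formaldehyde, 1 ug/ml Hoechst) and their nuclei counted on 4× images. Treatment had been applied by pin tool the day after seeding as one drug alone or as a fixed anchor-drug dose with five library-drug doses (not always all listed) in √10 steps. Relative viability is the nuclei count of treated wells divided by that of vehicle wells, and values are medians of duplicate plates.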

RERF-LC-KJ = tested on: RERF-LC-KJ
In short: as §1

NCI-H2087 = tested on: NCI-H2087
In short: as §1

HCC-78 = tested on: HCC-78
In short: as §1

LOU-NH91 = tested on: LOU-NH91
In short: as §1

NCI-H1793 = tested on: NCI-H1793
In short: as §1

NCI-H1755 = tested on: NCI-H1755
In short: as §1

NCI-H1944 = tested on: NCI-H1944
In short: as §1

NCI-H1651 = tested on: NCI-H1651
In short: as §1

HCC-366 = tested on: HCC-366
In short: as §1

NCI-H2228 = tested on: NCI-H2228
In short: as §1

ChaGo-K-1 = tested on: ChaGo-K-1
In short: as §1

NCI-H1395 = tested on: NCI-H1395
In short: as §1

NCI-H2170 = tested on: NCI-H2170
In short: as §1

NCI-H3122 = tested on: NCI-H3122
In short: as §1

LU99A = tested on: LU99A
In short: as §1

LC-2-ad = tested on: LC-2-ad
In short: as §1

NCI-H2405 = tested on: NCI-H2405
In short: as §1

NCI-H460 = tested on: NCI-H460
In short: as §1

CAL-12T = tested on: CAL-12T
In short: as §1

UMC-11 = tested on: UMC-11
In short: as §1

Cc1sc2c(c1C)C(c1ccc(Cl)cc1)=N[C@@H](CC(=O)OC(C)(C)C)c1nnc(C)n1-2 [JQ1] + CC1(C)CCC(c2ccc(Cl)cc2)=C(CN2CCN(c3ccc(C(=O)NS(=O)(=O)c4ccc(N[C@H](CCN5CCOCC5)CSc5ccccc5)c(S(=O)(=O)C(F)(F)F)c4)cc3)CC2)C1 [Navitoclax] (partner 0.5 µM)
relative viability (PC-3 [JPC-3]; first compound 0.04 µM): 0.781 | relative viability (PC-3 [JPC-3]; first compound 0.1265 µM): 0.877 | relative viability (PC-3 [JPC-3]; first compound 0.4 µM): 0.942 | relative viability (PC-3 [JPC-3]; first compound 1.265 µM): 0.644 | relative viability (PC-3 [JPC-3]; first compound 4 µM): 0.499 | relative viability (RERF-LC-KJ; first compound 0.04 µM): 0.867 | relative viability (RERF-LC-KJ; first compound 0.1265 µM): 1.06 | relative viability (RERF-LC-KJ; first compound 0.4 µM): 0.981 | relative viability (RERF-LC-KJ; first compound 1.265 µM): 0.275 | relative viability (RERF-LC-KJ; first compound 4 µM): 0.33 | relative viability (NCI-H2087; first compound 0.04 µM): 1.03 | relative viability (NCI-H2087; first compound 0.4 µM): 0.74 | relative viability (NCI-H2087; first compound 1.265 µM): 0.552 | relative viability (NCI-H2087; first compound 4 µM): 0.502 | relative viability (HCC-78; first compound 0.04 µM): 0.799 | relative viability (HCC-78; first compound 0.1265 µM): 0.761 | relative viability (HCC-78; first compound 0.4 µM): 0.465 | relative viability (HCC-78; first compound 1.265 µM): 0.285 | relative viability (HCC-78; first compound 4 µM): 0.242 | relative viability (LOU-NH91; first compound 0.04 µM): 0.637 | relative viability (LOU-NH91; first compound 0.1265 µM): 0.606 | relative viability (LOU-NH91; first compound 0.4 µM): 0.413 | relative viability (LOU-NH91; first compound 1.265 µM): 0.411 | relative viability (LOU-NH91; first compound 4 µM): 0.429 | relative viability (NCI-H1793; first compound 0.04 µM): 0.408 | relative viability (NCI-H1793; first compound 0.1265 µM): 0.345 | relative viability (NCI-H1793; first compound 0.4 µM): 0.515 | relative viability (NCI-H1793; first compound 1.265 µM): 0.444 | relative viability (NCI-H1793; first compound 4 µM): 0.377 | relative viability (NCI-H1755; first compound 0.04 µM): 1.01 | relative viability (NCI-H1755; first compound 0.1265 µM): 0.991 | relative viability (NCI-H1755; first compound 0.4 µM): 0.922 | relative viability (NCI-H1755; first compound 1.265 µM): 0.59 | relative viability (NCI-H1755; first compound 4 µM): 0.455 | relative viability (NCI-H1944; first compound 0.04 µM): 1.02 | relative viability (NCI-H1944; first compound 0.1265 µM): 0.922 | relative viability (NCI-H1944; first compound 0.4 µM): 1.07 | relative viability (NCI-H1944; first compound 1.265 µM): 0.762 | relative viability (NCI-H1944; first compound 4 µM): 0.617 | relative viability (NCI-H1651; first compound 0.04 µM): 0.928 | relative viability (NCI-H1651; first compound 0.1265 µM): 0.819 | relative viability (NCI-H1651; first compound 0.4 µM): 0.701 | relative viability (NCI-H1651; first compound 1.265 µM): 0.525 | relative viability (NCI-H1651; first compound 4 µM): 0.439 | relative viability (HCC-366; first compound 0.04 µM): 1.05 | relative viability (HCC-366; first compound 0.4 µM): 0.915 | relative viability (HCC-366; first compound 1.265 µM): 0.63 | relative viability (HCC-366; first compound 4 µM): 0.115 | relative viability (NCI-H2228; first compound 0.04 µM): 1.13 | relative viability (NCI-H2228; first compound 0.1265 µM): 0.671 | relative viability (NCI-H2228; first compound 0.4 µM): 0.667 | relative viability (NCI-H2228; first compound 1.265 µM): 0.557 | relative viability (NCI-H2228; first compound 4 µM): 0.308 | relative viability (ChaGo-K-1; first compound 0.04 µM): 1.08 | relative viability (ChaGo-K-1; first compound 0.4 µM): 0.868 | relative viability (ChaGo-K-1; first compound 1.265 µM): 0.405 | relative viability (ChaGo-K-1; first compound 4 µM): 0.481 | relative viability (NCI-H1395; first compound 0.04 µM): 1.13 | relative viability (NCI-H1395; first compound 0.1265 µM): 1.03 | relative viability (NCI-H1395; first compound 0.4 µM): 0.951 | relative viability (NCI-H1395; first compound 1.265 µM): 0.633 | relative viability (NCI-H1395; first compound 4 µM): 0.516 | relative viability (NCI-H2170; first compound 0.04 µM): 0.652 | relative viability (NCI-H2170; first compound 0.1265 µM): 0.641 | relative viability (NCI-H2170; first compound 0.4 µM): 0.452 | relative viability (NCI-H2170; first compound 1.265 µM): 0.279 | relative viability (NCI-H2170; first compound 4 µM): 0.285 | relative viability (NCI-H3122; first compound 0.04 µM): 1.01 | relative viability (NCI-H3122; first compound 0.1265 µM): 1.01 | relative viability (NCI-H3122; first compound 0.4 µM): 1.07 | relative viability (NCI-H3122; first compound 1.265 µM): 0.552 | relative viability (NCI-H3122; first compound 4 µM): 0.511 | relative viability (LU99A; first compound 0.04 µM): 0.746 | relative viability (LU99A; first compound 0.1265 µM): 0.699 | relative viability (LU99A; first compound 0.4 µM): 0.201 | relative viability (LU99A; first compound 1.265 µM): 0.137 | relative viability (LU99A; first compound 4 µM): 0.146 | relative viability (LC-2-ad; first compound 0.04 µM): 0.486 | relative viability (LC-2-ad; first compound 0.1265 µM): 0.58 | relative viability (LC-2-ad; first compound 0.4 µM): 0.376 | relative viability (LC-2-ad; first compound 1.265 µM): 0.196 | relative viability (LC-2-ad; first compound 4 µM): 0.175 | relative viability (NCI-H2405; first compound 0.04 µM): 0.886 | relative viability (NCI-H2405; first compound 0.4 µM): 0.491 | relative viability (NCI-H2405; first compound 1.265 µM): 0.136 | relative viability (NCI-H2405; first compound 4 µM): 0.117 | relative viability (NCI-H460; first compound 0.04 µM): 1.02 | relative viability (NCI-H460; first compound 0.1265 µM): 0.671 | relative viability (NCI-H460; first compound 0.4 µM): 0.499 | relative viability (NCI-H460; first compound 1.265 µM): 0.0782 | relative viability (NCI-H460; first compound 4 µM): 0.0465 | relative viability (CAL-12T; first compound 0.04 µM): 1.12 | relative viability (CAL-12T; first compound 0.1265 µM): 1.29 | relative viability (CAL-12T; first compound 0.4 µM): 0.701 | relative viability (CAL-12T; first compound 1.265 µM): 0.295 | relative viability (CAL-12T; first compound 4 µM): 0.408 | relative viability (UMC-11; first compound 0.04 µM): 0.266 | relative viability (UMC-11; first compound 0.1265 µM): 0.292 | relative viability (UMC-11; first compound 0.4 µM): 0.205 | relative viability (UMC-11; first compound 1.265 µM): 0.134 | relative viability (UMC-11; first compound 4 µM): 0.142
